{"source": "patent US20150086557A1", "about": "“NOVEL INTEGRIN alpha9 beta1 LIGAND AND USES THEREOF” (OSAKA UNIVERSITY, priority 2012, published 2015)", "key": {"A549 cells": {"test_system": "A549 cells", "assay": "Cell adhesion assay on coated plates (A549 cells)", "format": "cell-based, human", "conditions": "data not shown"}, "cardiac stem cells": {"test_system": "cardiac stem cells", "assay": "Colony forming ability of GFP label-retaining cells (cardiac stem cells)", "format": "cell-based, mouse", "conditions": "100 nM coating, 1×10^4 cells/well, 2 weeks, FIG. 26", "source_text": "Tissue stem cells are known to generally have a very prolonged, cell cycle and thus allow labeling compounds incorporated into DNA and the cell interior to remain stable for a long period of time without decay along with cell division, This nature can be advantageously used to identify and separate tissue stem cells by short-term labeling or cells with a nucleotide analog such as bromodeoxyuridine (BrdU) or a fusion protein of green fluorescent protein (hereinafter referred to as “GFP”) and a nucleoprotein, histone, followed by selection of cells retaining the label for a long period of time (label-retaining cells). In this experiment, with the use of a tetracycline-inducible expression system in combination with the ROSA26 promoter, a fusion protein of GFP and histone H2B (H2B-GFP) was expressed in the heart of a mouse for 2 weeks starting 1 week before birth, and 6 weeks later, cardiac stem cells were separated as GFP label-retaining cells from the heart.\nTo explore whether cardiac stem cells proliferate on a polydom-coated plate, colony formation was measured, as an indicator of proliferation. A Falcon 6-well plate was coated with 800 μl/well of 100 nM polydom or fibronectin at 4° C. overnight. GFP label-retaining cells were collected by FACSAria and suspended in IMDM containing 10% fetal calf serum. […] After drying, the number of colonies was counted under a microscope."}, "hematopoietic stem cells [1]": {"test_system": "hematopoietic stem cells", "assay": "FACS analysis of differentiation of hematopoietic stem cells on coated wells", "format": "cell-based, mouse", "conditions": "day 3 of culture on coated well, FIG. 19", "experimental": "(§1) Bone marrow cells were flushed out from the femurs and tibias of three mice of 6 to 7 weeks of age (C57BL/6J) and dissociated with a 22G needle. The cells were reacted with a biotin-labeled anti-lineage antibody for 30 minutes and subsequently with an anti-blotin antibody-conjugated magnetic beads, and lineage-positive cells were removed by automated magnetic cell sorter autoMACS (Miltenyi Biotec). After staining with PE-CD3, PE-Mac1, PE-Gr1, PE-Ter119, PE-B220, FTTC-Sca1 and APC-c-Kit, a lineage(−) Sca1(+) c-Kit (high) cell fraction was sorted out using FACSAria and used for the experiments described below.\n(§2) The above-prepared cells were plated on a 48-well plate coated with a recombinant polydom protein or fibronectin. The same type of plate without coating was used as a control. The medium used was RPMI containing 10% fetal calf serum, thrombopoietin (30 ng/ml) and flt3 ligand (100 ng/ml). For the examination of cell proliferation, the cells were plated in duplicate wells for each coating at 1000 cells/well and started to be cultured, and the cell number was counted at the start of culture, and on day 2 and day 3. The remaining cells were divided into three aliquots, plated in wells for each coating, and subjected to FACS analysis on day 3 after the start of culture. For the FACS analysis, staining with an antibody cocktail containing PE-CD3, PE-Mac1, PE-Gr1, PE-Ter119, PE-B220, FITC-Sca1 and APC-c-Kit was performed and FACSCont was used."}, "hematopoietic stem cells [2]": {"test_system": "hematopoietic stem cells", "assay": "Proliferation of hematopoietic stem cells on coated plates", "format": "cell-based, mouse", "experimental": "as §1, §2\nThe above-prepared cells were divided into three groups and plated on 48-well plates at 5000 cells/well. The medium used was RPMI containing 10% fetal calf serum, thrombopoietin (30 ng/ml) and flt3 ligand (100 ng/ml). For an EDDMMEVPY peptide treatment group, 2 μl of the peptide was added to each well at the final concentration of 50 μM, and for the other two groups, 2 μl of PBS was added to each well. Then, the culture was performed at […] for 2 hours. Subsequently, the cells were transferred to 48-well plates coated with a recombinant polydom protein or fibronectin. The cells cultured in the presence of the peptide were transferred to the recombinant polydom protein-coated plate, and the cells in one of the other two groups were transferred to the recombinant polydom protein-coated plate, and the cells in the remaining group were transferred to the fibronectin-coated plate. The culture was continued for 3 days and the cell numbers were counted on day 2, day 3 and […]."}}}
{"substance": "polydom: recombinant mouse SVEP1 (SEQ ID NO: 2), ECM protein, ligand for integrin α9β1", "values": [{"measurement": "adhesion of A549 cells", "setting": "A549 cells", "value": "did not adhere"}, {"measurement": "colony forming activity (colony count relative to the number of cells plated)", "setting": "cardiac stem cells", "value": "about 0.8%"}, {"measurement": "expression of Sca1 on hematopoietic stem cells", "setting": "hematopoietic stem cells [1]", "value": "maintained the expression of Sca1"}, {"measurement": "expression of c-Kit on hematopoietic stem cells", "setting": "hematopoietic stem cells [1]", "value": "reduced expression of c-Kit"}, {"measurement": "proliferation of hematopoietic stem cells on coated wells", "setting": "hematopoietic stem cells [2]; 1000 cells/well, counted to day 3, versus uncoated control, FIG. 18", "value": "remarkably inhibited from proliferating"}, {"measurement": "proliferation of hematopoietic stem cells on coated plate after PBS pretreatment", "setting": "hematopoietic stem cells [2]; 5000 cells/well, counted day 2 to day 4, FIG. 20", "value": "remarkably inhibited from proliferating"}]}
